For one assay, the target named is T1, human NPR1 (Homo sapiens, UniProt P16066).
T1 construct: host or cells: CHO-K1
T1 sequence (P16066 33-1061): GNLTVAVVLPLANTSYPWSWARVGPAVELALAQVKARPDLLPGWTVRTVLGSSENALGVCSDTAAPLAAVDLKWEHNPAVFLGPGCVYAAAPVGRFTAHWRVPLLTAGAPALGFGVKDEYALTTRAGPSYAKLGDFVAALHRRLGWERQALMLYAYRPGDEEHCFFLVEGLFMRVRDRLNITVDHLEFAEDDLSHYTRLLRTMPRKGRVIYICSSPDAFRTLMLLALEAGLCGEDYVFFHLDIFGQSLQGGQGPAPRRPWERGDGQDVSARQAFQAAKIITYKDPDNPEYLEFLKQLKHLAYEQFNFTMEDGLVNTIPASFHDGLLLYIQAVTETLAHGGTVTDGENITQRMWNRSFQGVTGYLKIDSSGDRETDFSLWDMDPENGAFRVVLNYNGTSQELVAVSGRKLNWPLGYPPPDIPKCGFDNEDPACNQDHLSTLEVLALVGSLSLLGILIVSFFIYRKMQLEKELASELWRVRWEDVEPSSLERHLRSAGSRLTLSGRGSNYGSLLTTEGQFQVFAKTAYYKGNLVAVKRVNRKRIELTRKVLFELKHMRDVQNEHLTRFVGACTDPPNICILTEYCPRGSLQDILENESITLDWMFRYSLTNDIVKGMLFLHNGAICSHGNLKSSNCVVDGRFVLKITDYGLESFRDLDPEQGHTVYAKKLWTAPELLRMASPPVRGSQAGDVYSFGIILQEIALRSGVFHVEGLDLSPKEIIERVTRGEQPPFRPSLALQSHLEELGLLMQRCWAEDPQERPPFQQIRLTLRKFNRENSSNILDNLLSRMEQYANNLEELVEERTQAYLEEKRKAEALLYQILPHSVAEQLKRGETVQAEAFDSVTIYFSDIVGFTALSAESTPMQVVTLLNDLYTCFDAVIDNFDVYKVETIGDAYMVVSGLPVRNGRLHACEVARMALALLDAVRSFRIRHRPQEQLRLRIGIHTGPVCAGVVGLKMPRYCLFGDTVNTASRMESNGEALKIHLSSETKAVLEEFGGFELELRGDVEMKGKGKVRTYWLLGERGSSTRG
Kind of assay: Cellular cGMP production assay, human NPR1 expressing CHO-K1 cells (CisBio HTRF). The assay is classed as cell-based. As to conditions: for AC50: cGMP production, 30 min at 37° C., 12-point dose-response from 30 μM; for Human NPR1 Amax (% of ANP): maximum cGMP production as percentage of the maximum cGMP produced with ANP. The essentials:
(§1)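 Step 1: add buffer (PBS, 0.1% BSA, 1 mM IBMX) and compounds, 3-fold series from 30 μM top. Step 2: incubate 30 min, 37 °C. Step 3: lyse; HTRF reagents 1 h at RT.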

Another assay has as its target monkey NPR1 (Macaca fascicularis, UniProt A0A7N9DBT9). Kind of assay: Cellular cGMP production assay, monkey NPR1 expressing CHO-K1 cells (CisBio HTRF). It counts as cell-based. As to conditions: for Monkey NPR1 Amax (% of ANP): maximum cGMP production as percentage of the maximum cGMP produced with ANP. The essentials:
as §1
A general note: TR-FRET usually uses a lanthanide donor and a delayed reading to cut background.

Where [1] appears, read: cGMP production, monkey NPR1 CHO-K1 cells, 30 min at 37° C., 12-point dose-response from 30 μM, read-out: Monkey NPR1 AC50.

The results in this text go back to patent publication US12129246B1, “Hydroquinazoline derivatives for the treatment of a disease or disorder” (Novartis AG, priority 2023, dated 2024).

Where two headings read alike, the source gives them in different places.

monkey NPR1, sequence (A0A7N9DBT9 entry or part of it): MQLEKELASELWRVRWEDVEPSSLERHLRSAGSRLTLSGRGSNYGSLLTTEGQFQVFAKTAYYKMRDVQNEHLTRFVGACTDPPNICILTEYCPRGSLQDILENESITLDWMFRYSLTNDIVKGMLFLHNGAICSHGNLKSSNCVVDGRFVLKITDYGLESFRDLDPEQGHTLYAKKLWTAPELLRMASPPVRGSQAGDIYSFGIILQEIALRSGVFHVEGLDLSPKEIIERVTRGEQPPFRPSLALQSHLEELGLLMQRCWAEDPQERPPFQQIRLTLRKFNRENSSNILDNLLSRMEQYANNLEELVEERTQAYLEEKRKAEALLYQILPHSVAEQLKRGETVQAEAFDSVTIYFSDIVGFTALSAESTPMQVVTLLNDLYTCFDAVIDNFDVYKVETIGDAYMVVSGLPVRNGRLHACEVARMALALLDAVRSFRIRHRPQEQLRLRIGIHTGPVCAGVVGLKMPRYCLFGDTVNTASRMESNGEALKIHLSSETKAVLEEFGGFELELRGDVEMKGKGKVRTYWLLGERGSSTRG

Consider `CC[C@H]([C@H]1CC[C@H](C(=O)O)CC1)N(C)c1nc2c(c(N[C@@H](CN3C4CCCC3CCC4)c3cnn(CC)c3)n1)C[C@@H](c1cccc(F)c1)CC2` [Compound 52, (1R,4r)-4-((R)-1-(((S)-4-(((R)-2-((1S,5S)-9-azabicyclo[3.3.1]nonan-9-yl)-1-(1-ethyl-1H-pyrazol-4-yl)ethyl)amino)-6-(3-fluorophenyl)-5,6,7,8-tetrahydroquinazolin-2-yl)(methyl)amino)propyl)cyclohexane-1-carboxylic acid], for which, at human NPR1, the AC50 worked out at 188 nM and the “Human NPR1 Amax (% of ANP)” value is given as 97.880 % of ANP. The compound further displayed an AC50 on monkey NPR1 of 167 nM. The “Monkey NPR1 Amax (% of ANP)” value at monkey NPR1 (monkey NPR1 CHO-K1 cells) is given as 106.496 % of ANP.

Regarding `CC[C@H]([C@H]1CC[C@H](C(=O)O)CC1)N(C)c1nc2c(c(N[C@@H](CN3CCC[C@H](C)C3)c3ccnn3C)n1)C[C@H](c1cccc(F)c1)CC2` [Compound 161, (1R,4r)-4-((R)-1-(((R)-6-(3-fluorophenyl)-4-(((S)-1-(1-methyl-1H-pyrazol-5-yl)-2-((S)-3-methylpiperidin-1-yl)ethyl)amino)-5,6,7,8-tetrahydroquinazolin-2-yl)(methyl)amino)propyl)cyclohexane-1-carboxylic acid], at human NPR1, the AC50 stood at 1680 nM and the “Human NPR1 Amax (% of ANP)” value was 108.479 % of ANP. Besides, the AC50 at monkey NPR1 (setting [1]) was 989 nM. Also, at monkey NPR1 (monkey NPR1 CHO-K1 cells), the “Monkey NPR1 Amax (% of ANP)” value is given as 97.242 % of ANP.

With `CC[C@@H](Nc1nc2c(c(N[C@@H](CN3CCCC3)c3ccccc3)n1)CN(c1cccc(F)c1)CC2)[C@H]1CC[C@H](C(=O)O)CC1` [Compound 99, (1R,4r)-4-((R)-1-((6-(3-fluorophenyl)-4-(((R)-1-phenyl-2-(pyrrolidin-1-yl)ethyl)amino)-5,6,7,8-tetrahydropyrido[4,3-d]pyrimidin-2-yl)amino)propyl)cyclohexane-1-carboxylic acid], at human NPR1, the activity was half-maximal at 351 nM (AC50) and the “Human NPR1 Amax (% of ANP)” value was 102.315 % of ANP. Moreover, the AC50 at monkey NPR1 (setting [1]) was found to be 256 nM. For the same compound, the “Monkey NPR1 Amax (% of ANP)” value on monkey NPR1 (monkey NPR1 CHO-K1 cells) is on record as 94.886 % of ANP.

By AC50 is commonly meant the concentration at which the activity in the assay is half-maximal.
